How the values were obtained:
[1] = molecular target: pEGFR (Tyr1068) in PC-9 cells (Ex19Del) (Homo sapiens (Human), UniProt P00533, DEL746-750); experiment: PC-9 pEGFR AlphaLISA assay; format: cell-based; conditions: 4 hours incubation, p-EGFR (Tyr1068) AlphaLISA, read-out: Ext pEGFR_PC-9 Ex19Del IC50
Procedure, shortened: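 PC-9 cells seeded overnight in phenol-free DMEM with 10% FBS, then treated 4 h at 37°C with a 10-point, 4-fold compound series. Lysates assayed for pEGFR Tyr1068 by AlphaLISA SureFire; IC50 from % inhibition vs log concentration.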

EGFR L858R = EGFR L858R (Homo sapiens (Human), UniProt P00533, L858R); experiment: Biochemical EGFR inhibition assay, EGFR L858R; conditions: Caliper mobility shift; 1.0 mM ATP or ATP Km; read-out: Enz EGFR_L858R IC50
Sequence of EGFR L858R (P00533 25-1210 L858R): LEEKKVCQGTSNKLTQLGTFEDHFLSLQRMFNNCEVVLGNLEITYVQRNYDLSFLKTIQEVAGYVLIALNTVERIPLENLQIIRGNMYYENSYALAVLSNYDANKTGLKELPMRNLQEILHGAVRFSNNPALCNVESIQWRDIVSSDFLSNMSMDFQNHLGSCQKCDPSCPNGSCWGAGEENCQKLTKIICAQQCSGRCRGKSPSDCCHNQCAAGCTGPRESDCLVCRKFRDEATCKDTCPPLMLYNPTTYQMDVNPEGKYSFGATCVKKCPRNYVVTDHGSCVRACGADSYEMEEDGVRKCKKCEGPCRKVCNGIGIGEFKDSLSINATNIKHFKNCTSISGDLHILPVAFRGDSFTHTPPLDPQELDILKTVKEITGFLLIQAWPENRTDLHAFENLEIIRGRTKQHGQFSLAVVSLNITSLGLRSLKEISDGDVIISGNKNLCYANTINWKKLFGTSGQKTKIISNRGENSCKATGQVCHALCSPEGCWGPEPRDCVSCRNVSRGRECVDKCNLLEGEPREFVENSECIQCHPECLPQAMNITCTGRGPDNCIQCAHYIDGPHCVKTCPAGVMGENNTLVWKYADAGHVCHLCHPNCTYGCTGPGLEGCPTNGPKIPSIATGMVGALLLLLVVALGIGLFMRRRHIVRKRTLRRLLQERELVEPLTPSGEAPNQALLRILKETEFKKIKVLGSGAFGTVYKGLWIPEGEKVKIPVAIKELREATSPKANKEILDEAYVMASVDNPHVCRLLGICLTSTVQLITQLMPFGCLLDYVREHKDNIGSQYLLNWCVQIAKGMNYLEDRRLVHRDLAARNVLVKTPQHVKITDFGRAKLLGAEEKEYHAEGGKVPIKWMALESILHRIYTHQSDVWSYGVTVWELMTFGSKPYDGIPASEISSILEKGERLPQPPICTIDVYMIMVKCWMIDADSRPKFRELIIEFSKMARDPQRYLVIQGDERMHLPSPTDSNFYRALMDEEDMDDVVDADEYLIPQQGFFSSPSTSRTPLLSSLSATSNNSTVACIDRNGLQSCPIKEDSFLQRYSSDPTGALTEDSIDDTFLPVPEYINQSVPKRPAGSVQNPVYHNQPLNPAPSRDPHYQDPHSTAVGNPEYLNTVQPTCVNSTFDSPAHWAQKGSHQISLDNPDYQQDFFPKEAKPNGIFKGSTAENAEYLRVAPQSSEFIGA

EGFR (d746-750) = EGFR (d746-750) (Homo sapiens (Human), UniProt P00533, DEL746-750); experiment: Biochemical EGFR inhibition assay, EGFR (d746-750); conditions: Caliper mobility shift; 1.0 mM ATP or ATP Km; read-out: Enz EGFR_Exon19-del746-750 IC50
Sequence of EGFR (d746-750) (P00533 other isoform, or with tags, fused parts or gaps del 1-694/del 746-750 limits assumed): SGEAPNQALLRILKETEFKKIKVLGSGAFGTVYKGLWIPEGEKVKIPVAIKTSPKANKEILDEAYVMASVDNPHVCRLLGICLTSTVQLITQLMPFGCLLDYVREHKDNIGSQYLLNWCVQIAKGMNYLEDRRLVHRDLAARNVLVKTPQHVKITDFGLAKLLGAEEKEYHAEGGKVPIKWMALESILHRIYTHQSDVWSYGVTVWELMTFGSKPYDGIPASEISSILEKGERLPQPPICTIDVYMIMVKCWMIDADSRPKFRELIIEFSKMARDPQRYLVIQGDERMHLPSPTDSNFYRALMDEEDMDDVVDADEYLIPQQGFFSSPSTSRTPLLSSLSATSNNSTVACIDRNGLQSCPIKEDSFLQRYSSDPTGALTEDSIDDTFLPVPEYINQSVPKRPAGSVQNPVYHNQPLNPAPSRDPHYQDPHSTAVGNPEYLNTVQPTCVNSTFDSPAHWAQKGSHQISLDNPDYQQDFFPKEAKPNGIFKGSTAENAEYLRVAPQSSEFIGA

Sequence of pEGFR (Tyr1068) in PC-9 cells (Ex19Del) (P00533 other isoform, or with tags, fused parts or gaps del 746-750): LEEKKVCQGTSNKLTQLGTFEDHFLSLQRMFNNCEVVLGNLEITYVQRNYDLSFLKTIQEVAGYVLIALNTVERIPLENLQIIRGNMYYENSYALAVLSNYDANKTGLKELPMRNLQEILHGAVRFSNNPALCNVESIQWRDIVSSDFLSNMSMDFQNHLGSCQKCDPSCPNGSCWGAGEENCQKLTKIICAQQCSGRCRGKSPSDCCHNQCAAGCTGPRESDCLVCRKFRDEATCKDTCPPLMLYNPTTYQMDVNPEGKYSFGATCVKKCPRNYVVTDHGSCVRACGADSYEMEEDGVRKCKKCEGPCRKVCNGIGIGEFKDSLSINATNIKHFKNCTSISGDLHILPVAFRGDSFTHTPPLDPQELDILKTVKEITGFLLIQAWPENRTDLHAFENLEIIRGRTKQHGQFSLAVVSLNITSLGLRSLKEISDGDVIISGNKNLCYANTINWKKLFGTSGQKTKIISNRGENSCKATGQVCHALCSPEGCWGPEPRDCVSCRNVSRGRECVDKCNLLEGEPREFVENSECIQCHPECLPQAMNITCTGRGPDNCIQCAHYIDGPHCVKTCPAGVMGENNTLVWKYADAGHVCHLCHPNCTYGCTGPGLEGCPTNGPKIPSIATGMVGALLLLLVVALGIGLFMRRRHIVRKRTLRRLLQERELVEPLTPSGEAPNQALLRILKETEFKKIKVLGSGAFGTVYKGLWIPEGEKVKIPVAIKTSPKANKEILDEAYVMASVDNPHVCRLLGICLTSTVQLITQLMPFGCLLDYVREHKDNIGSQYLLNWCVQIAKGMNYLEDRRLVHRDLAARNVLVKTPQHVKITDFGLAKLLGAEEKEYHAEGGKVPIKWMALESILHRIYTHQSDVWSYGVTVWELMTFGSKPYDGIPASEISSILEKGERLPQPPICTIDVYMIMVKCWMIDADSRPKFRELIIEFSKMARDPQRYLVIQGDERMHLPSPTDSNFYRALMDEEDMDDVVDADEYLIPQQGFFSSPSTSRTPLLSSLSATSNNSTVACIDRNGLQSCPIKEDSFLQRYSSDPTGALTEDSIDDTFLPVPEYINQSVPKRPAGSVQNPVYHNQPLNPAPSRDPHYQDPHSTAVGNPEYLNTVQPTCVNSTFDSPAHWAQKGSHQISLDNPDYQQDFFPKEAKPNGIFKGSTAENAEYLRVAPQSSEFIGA

IC50 [1] [nM]	IC50 (EGFR L858R) [nM]	IC50 (EGFR (d746-750)) [nM]	Compound
8.5	4.1	2.4	COc1cc2ncnc(-c3cn(C)nc3-c3ccccc3)c2cc1O[C@H]1CN(C)C[C@H]1F [Example 4, 6-(((3S,4R)-4-fluoro-1-methylpyrrolidin-3-yl)oxy)-7-methoxy-4-(1-methyl-3-phenyl-1H-pyrazol-4-yl)quinazoline]
6.1	4.3	2.1	COc1cc2ncnc(-c3cn(C)nc3-c3ccccc3)c2cc1NC(=O)N1CCO[C@@H](C)[C@@H]1C [Example 177, (2S,3S)—N-(7-methoxy-4-(1-methyl-3-phenyl-1H-pyrazol-4-yl)quinazolin-6-yl)-2,3-dimethylmorpholine-4-carboxamide]
3.1	2.1	1.3	COc1cc2ncnc(-c3cn(C)nc3-c3ccccc3)c2cc1NC(=O)N1CCO[C@@H]2C[C@@H]21 (stereo in doubt) [Example 185, N-[7-methoxy-4-(1-methyl-3-phenyl-1H-pyrazol-4-yl)quinazolin-6-yl]-2-oxa-5-azabicyclo[4.1.0]heptane-5-carboxamide]
5.5	3.6	1.4	CCOc1cc2ncnc(-c3cn(C)nc3-c3ccccc3)c2cc1N1CCOCC1 [Example 163, 4-(7-ethoxy-4-(1-methyl-3-phenyl-1H-pyrazol-4-yl)quinazolin-6-yl)morpholine]
8.7	4.2	2.5	COc1cc2ncnc(-c3cn(C)nc3-c3ccccc3)c2cc1OC(=O)N1CCOC[C@@H]1C [Example 62, 7-methoxy-4-(1-methyl-3-phenyl-1H-pyrazol-4-yl)quinazolin-6-yl (S)-3-methylmorpholine-4-carboxylate]
5	3.6	2	COc1cc2ncnc(-c3cn(C)nc3-c3ccccc3)c2cc1OC1CCOCC1 [Example 14, 7-methoxy-4-(1-methyl-3-phenyl-1H-pyrazol-4-yl)-6-((tetrahydro-2H-pyran-4-yl)oxy)quinazoline]
14.3	9.4	3.6	COc1cc2ncnc(-c3cn(C)nc3-c3ccccc3)c2nc1O[C@@H](C)c1nnnn1C [Example 45, (S)-7-methoxy-6-(1-(1-methyl-1H-tetrazol-5-yl)ethoxy)-4-(1-methyl-3-phenyl-1H-pyrazol-4-yl)pyrido[3,2-d]pyrimidine]
0.6	1.4	0.9	COc1cc2ncnc(-c3c[nH]nc3-c3ccccc3)c2cc1[C@@H]1CCCCO1 (single isomer, unassigned) [Example 132, (S)-7-methoxy-4-(3-phenyl-1H-pyrazol-4-yl)-6-(tetrahydro-2H-pyran-2-yl)quinazoline or (R)-7-methoxy-4-(3-phenyl-1H-pyrazol-4-yl)-6-(tetrahydro-2H-pyran-2-yl)quinazoline]
7.1	15.3	5.4	CN(C)CCOc1cc2ncnc(-c3cn(C)nc3-c3ccccc3)c2cc1NC(=O)C12CC(C1)C2 [Example 299, N-(7-(2-(dimethylamino)ethoxy)-4-(1-methyl-3-phenyl-1H-pyrazol-4-yl)quinazolin-6-yl)bicyclo[1.1.1]pentane-1-carboxamide]
0.4	1.1	0.7	COc1cc2ncnc(-c3cn(CC(F)F)nc3-c3ccccc3)c2nc1NC(=O)C1(C(F)(F)F)CC1 [Example 370, N-(4-(1-(2,2-difluoroethyl)-3-phenyl-1H-pyrazol-4-yl)-7-methoxypyrido[3,2-d]pyrimidin-6-y1)-1-(trifluoromethyl)cyclopropane-1-carboxamide]
4.4	3.1	1.5	COc1cc2ncnc(-c3cn(C)nc3-c3ccccc3)c2cc1NC(=O)C(C)(C)F [Example 350, 2-fluoro-N-(7-methoxy-4-(1-methyl-3-phenyl-1H-pyrazol-4-yl)quinazolin-6-yl)-2-methylpropanamide]
8.1	4.6	2.5	COc1cc2ncnc(-c3cn(C)nc3-c3ccccc3)c2cc1N1CC2(COC2)C1 [Example 161, 6-(7-methoxy-4-(1-methyl-3-phenyl-1H-pyrazol-4-yl)quinazolin-6-yl)-2-oxa-6-azaspiro[3.3]heptane]
4.4	4.9	2.4	COc1cc2ncnc(-c3cn(C)nc3-c3ccccc3)c2cc1NC(=O)[C@@H]1CCCN1C (single isomer, unassigned) [Example 243, (R)—N-(7-methoxy-4-(1-methyl-3-phenyl-1H-pyrazol-4-yl)quinazolin-6-yl)-1-methylpyrrolidine-2-carboxamide or (S)—N-(7-methoxy-4-(1-methyl-3-phenyl-1H-pyrazol-4-yl)quinazolin-6-yl)-1-methylpyrrolidine-2-carboxamide]
25.9	2.7	2.1	Cc1n[nH]c(-c2ccccc2)c1-c1ncnc2cc(-c3cnn(C)c3)ccc12 [Example 479, 7-(1-methyl-1H-pyrazol-4-yl)-4-(3-methyl-5-phenyl-1H-pyrazol-4-yl)quinazoline]
2.7	1.5	1	C[C@@H](O)c1cc2c(-c3cn(CC(F)F)nc3-c3ccccc3)ncnc2cc1-c1cnn(C)c1 (single isomer, unassigned) [Example 445, (R)-1-(4-(1-(2,2-difluoroethyl)-3-phenyl-1H-pyrazol-4-yl)-7-(1-methyl-1H-pyrazol-4-yl)quinazolin-6-yl)ethan-1-ol or (S)-1-(4-(1-(2,2-difluoroethyl)-3-phenyl-1H-pyrazol-4-yl)-7-(1-methyl-1H-pyrazol-4-yl)quinazolin-6-yl)ethan-1-ol]
4.8	1.7	1.2	COc1cc2ncnc(-c3cn(C)nc3-c3ccccc3)c2cc1O[C@@H](C)C1COC1 [Example 22, (S)-7-methoxy-4-(1-methyl-3-phenyl-1H-pyrazol-4-yl)-6-(1-(oxetan-3-yl)ethoxy)quinazoline]
0.9	0.9	0.5	CCOc1cc2ncnc(-c3cn(C)nc3-c3ccccc3)c2cc1NC(=O)c1ccc(C2CC2)nc1 [Example 297, 6-cyclopropyl-N-(7-ethoxy-4-(1-methyl-3-phenyl-1H-pyrazol-4-yl)quinazolin-6-yl)nicotinamide]
0.8	1.5	1	COc1cc2ncnc(-c3cn(CC(F)F)nc3-c3ccccc3)c2cc1N1CCOCC1 [Example 168, 4-(4-(1-(2,2-difluoroethyl)-3-phenyl-1H-pyrazol-4-yl)-7-methoxyquinazolin-6-yl)morpholine]
2.8	3.5	1.9	CCOc1cc2ncnc(-c3cn(C)nc3-c3ccccc3)c2cc1OC1CCN(C(=O)CC)CC1 [Example 10, 1-(4-((7-ethoxy-4-(1-methyl-3-phenyl-1H-pyrazol-4-yl)quinazolin-6-yl)oxy)piperidin-1-yl) propan-1-one]
4	2.1	1	COc1cc2ncnc(-c3cn(C(F)F)nc3-c3ccccc3)c2nc1NC(=O)C12CC(C1)C2 [Example 364, N-(4-(1-(difluoromethyl)-3-phenyl-1H-pyrazol-4-yl)-7-methoxypyrido[3,2-d]pyrimidin-6-yl)bicyclo[1.1.1]pentane-1-carboxamide]
2.1	1.4	0.9	CCOc1cc2ncnc(-c3cn(C)nc3-c3ccccc3)c2cc1OC [Example 25, 7-ethoxy-6-methoxy-4-(1-methyl-3-phenyl-1H-pyrazol-4-yl)quinazoline]
2.7	2.3	1.9	CCn1cc([C@@H](C)Oc2nc3c(-c4cn(C)nc4-c4ccccc4)ncnc3cc2OC)nn1 [Example 35, (R)-6-(1-(1-ethyl-1H-1,2,3-triazol-4-yl)ethoxy)-7-methoxy-4-(1-methyl-3-phenyl-1H-pyrazol-4-yl)pyrido[3,2-d]pyrimidine]

Compound	IC50 [1] [nM]	IC50 (EGFR L858R) [nM]	IC50 (EGFR (d746-750)) [nM]
COc1cc2ncnc(-c3cn(C)nc3-c3ccccc3)c2cc1OC(=O)N1CCN(C)C(C)(C)C1 [Example 77, 7-methoxy-4-(1-methyl-3-phenyl-1H-pyrazol-4-yl)quinazolin-6-yl 3,3,4-trimethylpiperazine-1-carboxylate]	9.7	7.2	3.5
COc1cc2ncnc(-c3cn(C)nc3-c3ccccc3)c2cc1OC(=O)N1CCN(C)CC1C (stereo not drawn) [Example 57, 7-methoxy-4-(1-methyl-3-phenyl-1H-pyrazol-4-yl)quinazolin-6-yl 2,4-dimethylpiperazine-1-carboxylate]	2.2	2.3	1.7
COc1cc2ncnc(-c3cn(C)nc3-c3ccccc3)c2cc1OC(=O)N1C[C@H](C)N(C)C[C@@H]1C [Example 97, 7-methoxy-4-(1-methyl-3-phenyl-1H-pyrazol-4-yl)quinazolin-6-yl (2S,5S)-2,4,5-trimethylpiperazine-1-carboxylate]	12.4	7.8	4.9
[2H]C([2H])([2H])N1CCN(C(=O)Oc2cc3c(-c4cn(C)nc4-c4ccccc4)ncnc3cc2OC)[C@@H](C)C1 [Example 93, 7-methoxy-4-(1-methyl-3-phenyl-1H-pyrazol-4-yl)quinazolin-6-yl(S)-2-methyl-4-(methyl-d3) piperazine-1-carboxylate]	4.3	4.3	2.5

From patent US20250236608A1, “EGFR INHIBITORS” (Blueprint Medicines Corporation, priority 2022, published 2025)
